Data reported in ChEMBL document CHEMBL1132794, “Structure-based design of six novel classes of nonpeptide antagonists of the bradykinin B2 receptor” (Bioorg Med Chem Lett, 2000).

biological target: T1, B2 bradykinin receptor (Homo sapiens, UniProt P30411); assay: Compound was assayed for binding against the human Bradykinin receptor B2 expressed in CHO cells; NA means Inactive; assay type: cell-based; conditions: not given
T1 sequence (P30411 whole entry): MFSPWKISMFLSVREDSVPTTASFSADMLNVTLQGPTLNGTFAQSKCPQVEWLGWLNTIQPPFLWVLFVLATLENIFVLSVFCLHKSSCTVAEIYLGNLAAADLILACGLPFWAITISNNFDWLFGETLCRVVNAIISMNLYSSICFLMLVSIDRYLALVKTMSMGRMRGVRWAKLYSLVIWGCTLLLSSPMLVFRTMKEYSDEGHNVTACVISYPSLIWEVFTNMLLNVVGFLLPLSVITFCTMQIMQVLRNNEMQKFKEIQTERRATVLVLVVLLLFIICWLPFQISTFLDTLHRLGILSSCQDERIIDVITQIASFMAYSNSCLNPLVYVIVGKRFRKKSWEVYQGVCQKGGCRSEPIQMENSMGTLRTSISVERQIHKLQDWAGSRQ

Kd	Compound
Not Active	NCCCC[C@H](C(=O)NCc1ccc(CN)cc1)n1cccc1C(=O)NCCc1ccccc1
Not Active	NC[C@H]1C[C@@H](OCc2ccccc2)CN1C(=O)c1ccccc1
Not Active	N=C(N)NC[C@H]1C[C@@H](OCc2ccccc2)CN1C(=O)c1ccccc1

biological target: T1, B2 bradykinin receptor; assay: Compound was assayed for binding against the human Bradykinin receptor B2 expressed in CHO cells; assay type: cell-based; conditions: not given

Compound	Kd
NC(N)=NC[C@H]1C[C@@H](OCc2ccccc2)CN1C(=O)c1ccc2ccccc2c1	15 µM
NCc1cccc(Cn2ccc3c2C(=O)C(Cc2ccccc2)(Cc2ccccc2)CC3)c1	7.6 µM
NCc1ccc(CNC(=O)[C@@H](CN)n2cccc2CNC(=O)C(c2ccccc2)C2CCCCC2)cc1 (stereo partly specified)	17 µM
NCCCN1C(=O)C(CCN)N=C(c2ccccc2)c2cc(N(Cc3ccccc3)Cc3ccccc3)ccc21 (stereo unspecified)	15 µM
CCCCc1ccnc([C@H](CC2CCCCC2)NC(=O)CCCCN)c1	62 µM
N=C(N)NCCC1N=C(c2ccccc2)c2cc(N(Cc3ccccc3)Cc3ccccc3)ccc2N(CCCN=C(N)N)C1=O (stereo unspecified)	4.5 µM
NCCCN1C(=O)C(CN)N=C(c2ccccc2)c2cc(N(Cc3ccccc3)Cc3ccccc3)ccc21 (stereo unspecified)	4.3 µM
N=C(N)NCC1N=C(c2ccccc2)c2cc(N(Cc3ccccc3)Cc3ccccc3)ccc2N(CCCN=C(N)N)C1=O (stereo unspecified)	12 µM
NCc1ccc(CNC(=O)[C@@H](CN)n2cccc2CNC(=O)CC2CCCCC2)cc1	101 µM
CCCCC1(CCCC)Oc2cccc(NC(=O)c3ccc(CN)cc3)c2O1	13 µM

More lines, now with the values ahead:

Kd	Compound
14 µM	CCCCC1(CCCC)Oc2cccc(N(CCCN)C(=O)c3ccc(CN)cc3)c2O1
23 µM	CCCCc1ccnc([C@H](CC2CCCCC2)NC(=O)CCCCN(CCCC)CCCC)c1
66 µM	NC[C@H]1C[C@@H](OCc2ccccc2)CN1C(=O)c1ccc2ccccc2c1
28 µM	NCCCC[C@H](C(=O)NCc1ccc(CN)cc1)n1cccc1C(=O)NC(Cc1ccccc1)c1ccccc1 (stereo partly specified)
7.4 µM	CCCCc1ccnc([C@H](CC2CCCCC2)NC(=O)c2ccc(CN)cc2)c1
5 µM	CCCCc1ccnc([C@H](CC2CCCCC2)NC(=O)c2ccc(CNC(=N)N)cc2)c1

biological target: T1, B2 bradykinin receptor; assay: Compound was assayed for binding against the human Bradykinin receptor B2 expressed in CHO cells; 0.2-16; assay type: cell-based; conditions: not given

Kd	Compound
0.2 µM	N=C(N)NCCC[C@@H]1NC(=O)N2C3CCCCC3C[C@H]2C(=O)N2Cc3ccccc3C[C@@H]2C(=O)NCC[C@@H](NC(=O)CCc2ccccc2)C(=O)CCNC1=O (stereo partly specified)

same assay, conditions: cho

Kd	Compound
0.2 µM	NCCCC[C@@H]1NC(=O)[C@H](c2ccccc2)NC(=O)[C@H](CNC(=O)Cc2ccccc2)NC(=O)[C@H]2Cc3ccccc3CN2C(=O)[C@@H]2CC3CCCCC3N2C(=O)[C@H](CN)NC1=O (stereo partly specified)
